Measurements taken from PubChem BioAssay (NCI).
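A five-concentration, 48-hour dose response in 96-well plates underlies each endpoint, interpolated linearly between surrounding concentrations. TGI: concentration producing complete growth inhibition.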 Where a SMILES comes first, the peptide text is derived from it. The star is where a group is joined. Boc = CC(C)(C)OC(=O)*; OBn = c1ccc(CO*)cc1; Bn = c1ccc(C*)cc1

Assays:
Assay in all cases: NCI anticancer screen, dose series, 48 h
[1] = tested on: 786-0 renal
[2] = tested on: A498 renal
[3] = tested on: A549 NSCLC
[4] = tested on: ACHN renal
[5] = tested on: BT-549 breast
[6] = tested on: COLO 205 colon
[7] = tested on: EKVX NSCLC
[8] = tested on: HCC-2998 colon
[9] = tested on: HCT-116 colon
[10] = tested on: HCT-15 colon
[11] = tested on: HL-60(TB) leukemia
[12] = tested on: HOP-62 NSCLC
[13] = tested on: HOP-92 NSCLC
[14] = tested on: HS 578T breast
[15] = tested on: HT29 colon
[16] = tested on: IGROV1 ovarian
[17] = tested on: K-562 leukemia
[18] = tested on: KM12 colon
[19] = tested on: M14 melanoma
[20] = tested on: MALME-3M melanoma
[21] = tested on: MCF7 breast
[22] = tested on: MDA-MB-231 breast
[23] = tested on: MDA-N
[24] = tested on: MOLT-4 leukemia
[25] = tested on: NCI-H226 lung
[26] = tested on: NCI-H23 lung
[27] = tested on: NCI-H460 lung
[28] = tested on: OVCAR-5 ovarian
[29] = tested on: OVCAR-8 ovarian
[30] = tested on: PC-3 prostate
[31] = tested on: RPMI-8226 leukemia
[32] = tested on: RXF 393 renal
[33] = tested on: SK-MEL-2 melanoma
[34] = tested on: SK-MEL-28 melanoma
[35] = tested on: SK-MEL-5 melanoma
[36] = tested on: SN12C renal
[37] = tested on: SNB-19 CNS
[38] = tested on: SNB-75 CNS
[39] = tested on: SR leukemia
[40] = tested on: SW-620 colon
[41] = tested on: TK-10 renal
[42] = tested on: U251 CNS
[43] = tested on: UACC-257 melanoma
[44] = tested on: UACC-62 melanoma
[45] = tested on: UO-31 renal
[46] = tested on: CAKI-1 renal
[47] = tested on: CCRF-CEM leukemia
[48] = tested on: DU-145 prostate
[49] = tested on: LOX IMVI melanoma
[50] = tested on: MDA-MB-435
[51] = tested on: NCI/ADR-RES ovarian
[52] = tested on: OVCAR-3 ovarian
[53] = tested on: OVCAR-4 ovarian
[54] = tested on: SF-268 CNS
[55] = tested on: SF-295 CNS
[56] = tested on: SF-539 CNS
[57] = tested on: SK-OV-3 ovarian
[58] = tested on: T-47D breast
[59] = tested on: NCI-H522 lung

`CC(C)CC(NC(=O)C(CCC(=O)OCc1ccccc1)NC(=O)OC(C)(C)C)C(=O)NC(COCc1ccccc1)C(=O)NC(Cc1ccccc1)C(=O)O` (stereo unspecified) (Boc-E(OBn)LS(Bn)F-OH; configuration not given here) gave a TGI [1] of over 100 µM, a TGI [2] of over 100 µM and a TGI [3] of over 100 µM. It also gave a TGI [4] of over 100 µM, a TGI [5] of over 100 µM and a TGI [6] of over 100 µM. For the same compound, the TGI [7] was over 100 µM, the TGI [8] was over 100 µM and the TGI [9] was over 100 µM. For the same compound, the TGI [10] was over 100 µM, the TGI [11] was over 100 µM and the TGI [12] was over 100 µM. The TGI [13] was over 100 µM, the TGI [14] was over 100 µM and the TGI [15] was over 100 µM. It also gave a TGI [16] of over 100 µM, a TGI [17] of over 100 µM and a TGI [18] of over 100 µM. For the same compound, the TGI [19] was over 100 µM, the TGI [20] was over 100 µM and the TGI [21] was over 100 µM. For the same compound, the TGI [22] was over 100 µM, the TGI [23] was over 100 µM and the TGI [24] was over 100 µM. It also gave a TGI [25] of over 100 µM, a TGI [26] of over 100 µM and a TGI [27] of over 100 µM. The TGI [28] was over 100 µM, the TGI [29] was over 100 µM and the TGI [30] was over 100 µM. It also gave a TGI [31] of over 100 µM, a TGI [32] of over 100 µM and a TGI [33] of over 100 µM. For the same compound, the TGI [34] was over 100 µM, the TGI [35] was over 100 µM and the TGI [36] was over 100 µM. The TGI [37] was over 100 µM, the TGI [38] was over 100 µM and the TGI [39] was over 100 µM. For the same compound, the TGI [40] was over 100 µM, the TGI [41] was over 100 µM and the TGI [42] was over 100 µM. It also gave a TGI [43] of over 100 µM, a TGI [44] of over 100 µM and a TGI [45] of over 100 µM.
With `CCCCOP(=O)(OCCCC)C(NS(=O)(=O)c1ccccc1)(C(=O)OCC)C(F)(F)F` (stereo unspecified) the TGI [1] was 88.1 µM, the TGI [2] was 76.1 µM and the TGI [3] was over 100 µM. For the same compound, the TGI [4] was 85.1 µM, the TGI [46] was over 100 µM and the TGI [47] was 72.5 µM. For the same compound, the TGI [6] was 38.7 µM, the TGI [48] was over 100 µM and the TGI [7] was over 100 µM. It also gave a TGI [8] of over 100 µM, a TGI [9] of 66.9 µM and a TGI [10] of over 100 µM. The TGI [11] was 47.8 µM, the TGI [12] was 61.4 µM and the TGI [13] was 71.8 µM. The TGI [14] was over 100 µM, the TGI [15] was over 100 µM and the TGI [16] was 65.6 µM. For the same compound, the TGI [17] was 59.9 µM, the TGI [18] was 93.2 µM and the TGI [49] was 96.9 µM. It also gave a TGI [19] of 68 µM, a TGI [20] of 45.4 µM and a TGI [21] of 76.1 µM. The TGI [22] was 36.7 µM, the TGI [50] was 56.3 µM and the TGI [23] was over 100 µM. It also gave a TGI [24] of 58.1 µM, a TGI [25] of 74.9 µM and a TGI [26] of over 100 µM. For the same compound, the TGI [27] was over 100 µM, the TGI [51] was 64.6 µM and the TGI [52] was 59.5 µM. For the same compound, the TGI [53] was 94.9 µM, the TGI [28] was over 100 µM and the TGI [29] was over 100 µM. For the same compound, the TGI [30] was over 100 µM, the TGI [31] was 66.1 µM and the TGI [32] was 53 µM. The TGI [54] was over 100 µM, the TGI [55] was over 100 µM and the TGI [56] was 38.3 µM. For the same compound, the TGI [34] was 78.8 µM, the TGI [35] was 33.9 µM and the TGI [57] was over 100 µM. The TGI [36] was 90.4 µM, the TGI [37] was over 100 µM and the TGI [38] was 78.1 µM. For the same compound, the TGI [39] was over 100 µM, the TGI [58] was over 100 µM and the TGI [41] was 87.6 µM. For the same compound, the TGI [42] was 65 µM, the TGI [43] was 79.3 µM and the TGI [44] was over 100 µM. It also gave a TGI [45] of over 100 µM.
For `CCCCC(=O)Nc1ccc2cc(C(=O)OC)c(=O)[nH]c2n1`, the TGI [1] was over 100 µM, the TGI [2] was over 100 µM and the TGI [3] was over 100 µM. For the same compound, the TGI [4] was over 100 µM, the TGI [5] was over 100 µM and the TGI [46] was over 100 µM. The TGI [47] was over 100 µM, the TGI [6] was over 100 µM and the TGI [7] was over 100 µM. It also gave a TGI [8] of over 100 µM, a TGI [9] of over 100 µM and a TGI [10] of over 100 µM. It also gave a TGI [12] of over 100 µM, a TGI [13] of over 100 µM and a TGI [16] of over 100 µM. The TGI [17] was over 100 µM, the TGI [18] was over 100 µM and the TGI [49] was over 100 µM. The TGI [19] was over 100 µM, the TGI [20] was over 100 µM and the TGI [21] was over 100 µM. For the same compound, the TGI [22] was over 100 µM, the TGI [50] was over 100 µM and the TGI [23] was over 100 µM. It also gave a TGI [24] of over 100 µM, a TGI [25] of over 100 µM and a TGI [26] of over 100 µM. It also gave a TGI [27] of over 100 µM, a TGI [59] of over 100 µM and a TGI [51] of over 100 µM. The TGI [52] was over 100 µM, the TGI [53] was over 100 µM and the TGI [28] was over 100 µM. The TGI [29] was over 100 µM, the TGI [30] was over 100 µM and the TGI [31] was over 100 µM. The TGI [32] was over 100 µM, the TGI [54] was over 100 µM and the TGI [55] was over 100 µM. The TGI [56] was over 100 µM, the TGI [33] was over 100 µM and the TGI [34] was over 100 µM. It also gave a TGI [35] of over 100 µM, a TGI [57] of over 100 µM and a TGI [36] of over 100 µM. For the same compound, the TGI [37] was over 100 µM, the TGI [38] was over 100 µM and the TGI [39] was over 100 µM. It also gave a TGI [40] of over 100 µM, a TGI [58] of over 100 µM and a TGI [41] of over 100 µM. For the same compound, the TGI [42] was over 100 µM, the TGI [43] was over 100 µM and the TGI [45] was over 100 µM.
With `COC(CO[Si](C)(C)N[Si](C)(C)OCC(OC)c1ccccc1)c1ccccc1` (stereo unspecified) the TGI [1] was over 100 µM, the TGI [2] was over 100 µM and the TGI [3] was over 100 µM. It also gave a TGI [4] of over 100 µM, a TGI [5] of over 100 µM and a TGI [46] of over 100 µM. For the same compound, the TGI [47] was over 100 µM, the TGI [6] was over 100 µM and the TGI [48] was over 100 µM. For the same compound, the TGI [7] was over 100 µM, the TGI [8] was over 100 µM and the TGI [9] was over 100 µM. It also gave a TGI [10] of over 100 µM, a TGI [11] of over 100 µM and a TGI [12] of over 100 µM. The TGI [13] was over 100 µM, the TGI [16] was over 100 µM and the TGI [17] was over 100 µM. For the same compound, the TGI [18] was over 100 µM, the TGI [49] was over 100 µM and the TGI [19] was over 100 µM. It also gave a TGI [21] of over 100 µM, a TGI [50] of over 100 µM and a TGI [23] of over 100 µM. It also gave a TGI [24] of over 100 µM, a TGI [25] of over 100 µM and a TGI [26] of over 100 µM. It also gave a TGI [27] of over 100 µM, a TGI [51] of over 100 µM and a TGI [52] of over 100 µM. The TGI [53] was over 100 µM, the TGI [28] was over 100 µM and the TGI [29] was over 100 µM. For the same compound, the TGI [30] was over 100 µM, the TGI [31] was over 100 µM and the TGI [32] was over 100 µM. The TGI [55] was over 100 µM, the TGI [33] was over 100 µM and the TGI [34] was over 100 µM. It also gave a TGI [35] of over 100 µM, a TGI [57] of over 100 µM and a TGI [36] of over 100 µM. The TGI [37] was over 100 µM, the TGI [38] was over 100 µM and the TGI [39] was over 100 µM. The TGI [40] was over 100 µM, the TGI [58] was over 100 µM and the TGI [41] was over 100 µM. For the same compound, the TGI [42] was over 100 µM, the TGI [43] was over 100 µM and the TGI [44] was over 100 µM. For the same compound, the TGI [45] was over 100 µM.
